Values after ≈ are worked out from the molar mass of the structure shown. Values joined by “and” are separate entries in the source; they are usually repeats but may differ in a detail not shown here. Equal entries are not always repeated. Where two headings read alike, the source gives them in different places.
Key:
[1] = test system: Mycobacterium intracellulare; assay: microbe, parasite or virus in culture; assay type: cell-based
Mycobacterium avium = assay: microbe, parasite or virus in culture; assay type: cell-based
Mycobacterium abscessus = assay: microbe, parasite or virus in culture; assay type: cell-based
Mtb ATCC 35825 = assay: microbe, parasite or virus in culture; assay type: cell-based
Mycobacterium fortuitum = assay: microbe, parasite or virus in culture; assay type: cell-based
Mtb # 11291 = assay: microbe, parasite or virus in culture; assay type: cell-based; settings: for MIC: read-out: MIC Mtb # 11291
Mtb # 8673 = assay: microbe, parasite or virus in culture; assay type: cell-based
[2] = biological target: ClpC1 NTD protein (M. tuberculosis) (Mycobacterium tuberculosis, UniProt P9WPC9); assay: biochemical; assay type: binding
ClpC1 NTD protein (M. tuberculosis), sequence (P9WPC9 1-156, looked up, natural form): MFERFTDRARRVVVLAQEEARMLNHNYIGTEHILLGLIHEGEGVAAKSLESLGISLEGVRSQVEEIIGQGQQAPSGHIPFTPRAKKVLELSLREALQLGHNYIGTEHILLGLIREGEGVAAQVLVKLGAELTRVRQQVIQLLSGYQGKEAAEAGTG

[3] = test system: M. tuberculosis H37Rv (ATCC 27294); assay: microbe, parasite or virus in culture; assay type: cell-based; settings: Mycobacterium tuberculosis
Caco-2 monolayers = assay: in vitro; settings: mean value of P(A−B) and P(B−A)
How it was run: (§1)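 Permeability across Caco-2 monolayers was measured in both directions, apical-to-basolateral and basolateral-to-apical, in 10^-6 cm s-1. Efflux ratio = P(B−A)/P(A−B). Intrinsic permeability is the mean of P(A−B) and P(B−A).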

in vitro = settings: human
How it was run: as §1

[4] = assay type: in vitro ADME, Human; settings: Human
Msm 700084 = assay: microbe, parasite or virus in culture; assay type: cell-based
[5] = assay type: in vitro ADME, Rat
[6] = Hepatocyte stability, mice; assay type: in vitro ADME; settings: clearance in hepatocytes
How it was run: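 Cryopreserved mouse hepatocytes (about 1 million cells/mL, pH 7.4, 50% species serum) incubated with 1 µM compound, DMSO <0.05%, at 37 °C for up to 6 h, sampled at 6 time points. Parent remaining measured by HPLC-MS/MS; half-life converted via well-stirred liver model to clearance as % Qh.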

Msm 607 = assay: microbe, parasite or virus in culture; assay type: cell-based
[7] = Experiment 2, three replicate columns
[8] = Mycobacterium tuberculosis, mean, n = 2 well replicates
[9] = Mycobacterium tuberculosis, single well replicates

For NCC[C@H](O)C(=O)N[C@@H]1C[C@H](N)[C@@H](O[C@H]2O[C@H](CN)[C@@H](O)[C@H](O)[C@H]2O)[C@H](O)[C@H]1O[C@H]1O[C@H](CO)[C@@H](O)[C@H](N)[C@H]1O [Amikacin, reference compound], the “MIC (µg/ml) Mycobacterium intracellulare” value [1, 7] was 0.50 µg/mL (≈ 0.854 µM), the MIC ([1]; Experiment 2, three replicate columns, read-out: MIC (µM) Mycobacterium intracellulare) was 0.85 µM and the MIC ([1]; Mycobacterium intracellulare, Experiment 2, three replicate columns, read-out: MIC (µM) Mycobacterium intracellulare) was 0.85 µM. The MIC ([1]; Mycobacterium intracellulare, Experiment 2, three replicate columns, read-out: MIC (µg/ml) Mycobacterium intracellulare) was 0.5 µg/mL, the MIC ([1]; Mycobacterium intracellulare, mean ± SD, read-out: MIC Mycobacterium intracellulare) was 0.9 µM and the “MIC (µg/ml) Mycobacterium avium” value (Mycobacterium avium; [7]) was 1 µg/mL (≈ 1.71 µM). It also gave an MIC (Mycobacterium avium; Experiment 2, three replicate columns, read-out: MIC (µM) Mycobacterium avium) of 1.71 µM, an MIC (Mycobacterium avium; Mycobacterium avium, Experiment 2, three replicate columns, read-out: MIC (µM) Mycobacterium avium) of 1.71 µM and an MIC (Mycobacterium avium; Mycobacterium avium, Experiment 2, three replicate columns, read-out: MIC (µg/ml) Mycobacterium avium) of 1 µg/mL. For the same compound, the MIC (Mycobacterium avium; Mycobacterium avium, mean ± SD, read-out: MIC Mycobacterium avium) was 1.7 µM, the “MIC (µg/ml) Mycobacterium abscessus” value (Mycobacterium abscessus; [7]) was 2 µg/mL (≈ 3.42 µM) and the MIC (Mycobacterium abscessus; Experiment 2, three replicate columns, read-out: MIC (µM) Mycobacterium abscessus) was 3.42 µM. The MIC (Mycobacterium abscessus; Mycobacteroides abscessus, Experiment 2, three replicate columns, read-out: MIC (µM) Mycobacterium abscessus) was 3.42 µM, the MIC (Mycobacterium abscessus; Mycobacteroides abscessus, Experiment 2, three replicate columns, read-out: MIC (µg/ml) Mycobacterium abscessus) was 2 µg/mL and the MIC (Mycobacterium abscessus; Mycobacteroides abscessus, mean ± SD, read-out: MIC Mycobacterium abscessus) was 3.4 µM. The MIC (Mtb ATCC 35825; Mycobacterium tuberculosis, ATCC35825, mean, n = 2 well replicates) was 0.1 µM and 0.03 µg/mL, the MIC (Mtb ATCC 35825; Mycobacterium tuberculosis, ATCC35825, single well replicates) was 0.03 µg/mL and 0.05 µM and the MIC (Mtb ATCC 35825; single well replicates) was 0.05 µM (≈ 0.0293 µg/mL). The “MIC Mtb ATCC 35825” value (Mtb ATCC 35825; single well replicates) was 0.03 µg/mL (≈ 0.0512 µM), the “MIC (µg/ml) Mycobacterium fortuitum” value (Mycobacterium fortuitum; [7]) was 0.25 µg/mL (≈ 0.427 µM) and the MIC (Mycobacterium fortuitum; Experiment 2, three replicate columns, read-out: MIC (µM) Mycobacterium fortuitum) was 0.43 µM. For the same compound, the MIC (Mycobacterium fortuitum; Mycolicibacterium fortuitum, Experiment 2, three replicate columns, read-out: MIC (µM) Mycobacterium fortuitum) was 0.43 µM, the MIC (Mycobacterium fortuitum; Mycolicibacterium fortuitum, Experiment 2, three replicate columns, read-out: MIC (µg/ml) Mycobacterium fortuitum) was 0.25 µg/mL and the MIC (Mycobacterium fortuitum; Mycolicibacterium fortuitum, mean ± SD, read-out: MIC Mycobacterium fortuitum) was 0.4 µM. For the same compound, the MIC (Mtb # 11291; [8]) was 3.4 µM and 2 µg/mL, the MIC (Mtb # 11291; [9]) was 3.42 µM and 2 µg/mL and the “MIC Mtb # 11291” value (Mtb # 11291; single well replicates) was 2 µg/mL (≈ 3.42 µM). For the same compound, the MIC (Mtb # 11291; single well replicates) was 3.42 µM (≈ 2 µg/mL), the MIC (Mtb # 8673; [8]) was > 219 µM and > 128 µg/mL and the MIC (Mtb # 8673; [9]) was > 219 µM and > 128 µg/mL. The MIC (Mtb # 8673; single well replicates) was >218.58 µM and the “MIC Mtb # 8673” value (Mtb # 8673; single well replicates) was >128 µg/mL.
With CO[C@H](c1ccc(OCc2cn(CCCCCn3cc(COc4ccc([C@@H](OC)[C@@H]5NC(=O)[C@H](C)NC(=O)[C@H](C[C@@H](C)CO)N(C)C(=O)[C@H](Cc6cn(C)c7ccccc67)NC(=O)[C@H](C(C)C)NC(=O)[C@H](CC(C)C)N(C)C(=O)[C@H](C(C)C)NC5=O)cc4)nn3)nn2)cc1)[C@@H]1NC(=O)[C@H](C)NC(=O)[C@H](C[C@@H](C)CO)N(C)C(=O)[C@H](Cc2cn(C)c3ccccc23)NC(=O)[C@H](C(C)C)NC(=O)[C@H](CC(C)C)N(C)C(=O)[C@H](C(C)C)NC1=O [SI-40] the Kd ([2]; SPR (Supplementary Table 1), read-out: KD ClpC1-NTD Mean ± SD) was 0.66 ± 0.04 nM, the “koff ClpC1-NTD” value ([2]; SPR, single independent measurements) was 0.0009 s⁻¹ and the Kd ([2]; SPR, single independent measurements, read-out: KD ClpC1-NTD) was 0.686 nM and 0.636 nM. For the same compound, the koff ([2]; SPR, single independent measurements, read-out: koff ClpC1-NTD) was 0.001 s⁻¹, the MIC ([3]; Mtb H37Rv (Supplementary Table 2), read-out: MIC Mtb) was 0.2 µM (≈ 0.419 µg/mL) and the MIC ([3]; single determinations, read-out: Mtb MIC) was 0.195 µM (≈ 0.409 µg/mL). The “Caco-2 Int. Perm” value (Caco-2 monolayers) was 1.60 10-6 cm s-1, the Papp A→B (in vitro; Caco-2, Caco-2 permeability P (A-B), apical to basolateral) was < 2.5 ×10⁻⁶ cm/s and the Papp B→A (in vitro; Caco-2, Caco-2 permeability P (B-A), basolateral to apical) was < 0.7 ×10⁻⁶ cm/s. For the same compound, the “Hepatocyte Stability Human QH” value [4] was 25.024%, the MIC (Msm 700084; Mycolicibacterium smegmatis, 700084, single determinations, read-out: Msm 700084 MIC) was > 50 µM and the MIC (Msm 700084; Mycolicibacterium smegmatis, 700084, read-out: MIC Msm 700084) was > 50 µM. The “Hepatocyte Stability Rat QH” value ([5]; Rat) was 11.911%, the “Hepatocyte Rat” value ([5]; clearance in hepatocytes) was 12 %Qh and the “Hepatocyte Mice” value [6] was 15 %Qh. For the same compound, the MIC (Msm 607; Mycolicibacterium smegmatis, 607, read-out: MIC Msm 607) was > 50 µM and the MIC (Msm 607; Mycolicibacterium smegmatis, 607, read-out: Msm 607 MIC, single determinations) was > 50 µM.

From publication PMC10914731, “Homo-BacPROTAC-induced degradation of ClpC1 as a strategy against drug-resistant mycobacteria” (Nature Communications, 2024)
